Results reported in patent US20260021186A1, “Fatty Acid-D-Amino Acid Peptides Conjugates as Anaplerotic Compounds for Use in Treating Propionic Acidemia, Methylmalonic Acidurias, and Energy Metabolic Disorders” (University of Pittsburgh - Of the Commonwealth System of …, priority 2022, published 2026).

Key:
[1] = test system: Fb859 propionic acidemia patient fibroblasts; assay: Lysine succinylation of cellular proteins by immunofluorescence confocal microscopy; format: cell-based, human; details: media without glucose; for lysine succinylation (green) signal: FIGS. 8A-8F, 30 μM and 90 μM, pyruvate, glutamine, stripped FBS; for lysine succinylation (green staining) compared to untreated cells: FIG. 7, 90 μM, 72 hours, glutamine or pyruvate, lipid stripped FBS
Protocol: FIG. 7 are immunocytochemistry photomicrographs showing the effect of incubation of Fb859 propionic acidemia patient fibroblasts on for lysine succinylation with 90 μM of PMA010, 90 μM of PMA011, 90 μM of succinic acid, 90 μM of methylmalonic acid, or 90 μM adipic acid for 72 hours. Immunocytochemistry of the fibroblast cells were stained for anti-succinyllysine antibody, anti-MTCO1 antibody and DAPI for nuclei. Instrument: Zeiss LSM 710 confocal Microscopy. Magnification: 40×. The cells were grown in glass coverslips at a seeding density of 3-5×10^4 cells. The media for untreated and treatment groups had no glucose, glutamine or pyruvate, and lipid stripped FBS was included instead of regular FBS. Scale bar=20 μm.
FIGS. 8A-8F are a comparison of lysine succinylation of cellular proteins visualized by immunofluorescence confocal microscopy in a Propionic Acidemia (Fb859) patient untreated (FIG. 8A) and treated with 30 μM and 90 μM of D-Serine (FIG. 8B), 30 µM and 90 μM of PMA007 (FIG. 8C), or 30 μM and 90 μM of PMA010 (FIG. 8D). Scale bar=20 μm. FIG. 8E is a bar graph showing the quantification of the percent change in lysine succinylation (green) signal, from the immunofluorescence confocal micrographs of FIGS. 8B and 8C, in response to the treatment of D-serine and PMA007. FIG. 8F is a bar graph showing the quantification of the percent change in lysine succinylation (green) signal, from the immunofluorescence confocal micrographs of a D-Serine repeat experiment and FIG. 8D, in response to the treatment of D-serine and PMA010. Asterisks indicate statistical significance calculated at the raw data level (n=3); **P<0.01, ***P<0.001, ****P<0.0001 statistically compared to untreated. Statistical analysis used T-test.
Immunohistochemistry: Patient cells were grown in glass coverslips at a seeding density of 3-5×10^4 cells. The media for untreated and treatment groups had no glucose, glutamine or pyruvate, and lipid stripped FBS was included instead of regular FBS. NIH Image J software was used to quantify the fluorescence intensity from 50-60 cells per group. Immunocytochemistry of propionic acidemia patient (Fb859) fibroblast cells lines stained for anti-succinyllysine (Green), anti-MTCO1 (Red), or anti-TOMM20 antibodies, and DAPI (Blue) for nuclei. Instrument: Zeiss LSM 710 confocal Microscopy. Statistical analysis used Tukey multiple range test. ****P<0.0001, [PMA010] (90 μM) treatment group statistically compared to control cells grown in the presence of regular complete DMEM media, untreated and [PMA010] (30 μM) cells grown in the absence of glucose/pyruvate/L-glutamine.

rat liver mitochondrial = details: in vitro; cited from earlier work
HEK293 PCCA−/− cells = assay: Lysine succinylation of cellular proteins by immunofluorescence confocal microscopy; format: cell-based, human; details: FIGS. 9C, 9D; 30 μM and 90 μM; media without glucose, pyruvate, and glutamine
Protocol: FIGS. 9A-9F are a comparison of lysine succinylation of cellular proteins visualized by immunofluorescence confocal microscopy in human HEK293 control and HEK293 PCCA^−/− cells untreated (FIGS. 9A and 9B) and treated with 30 μM and 90 μM of PMA007 (FIG. 9C) or 30 μM and 90 μM of PMA010 (FIG. 9D). The cells in FIGS. 9B, 9C, and 9D were grown in media without glucose, pyruvate, and glutamine. Scale bar=20 μm. FIG. 9E is a bar graph showing the quantification of the percent change in lysine succinylation (green) signal, from the immunofluorescence confocal micrographs of FIGS. 9B and 9C, in response to the treatment of PMA007. FIG. 9F is a bar graph showing the quantification of the percent change in lysine succinylation (green) signal, from the immunofluorescence confocal micrographs of FIGS. 9B and 9D, in response to the treatment of PMA010. Asterisks indicate statistical significance calculated at the raw data level (n=3); **P<0.01. ****P<0.0001 statistically compared to untreated. Statistical analysis used T-test.
FIGS. 9A-9F are a comparison of lysine succinylation of cellular proteins visualized by immunofluorescence confocal microscopy in human HEK293 control and in untreated and treated HEK293 PCCA^−/− knock out cells. […] The PMA007 treatment data in the bar graph of FIG. 9E are the quantitation of the images of FIG. 9C compared to untreated control in FIG. 9B. […]

PA patient cells, Fb859 = assay: Measurement of mitochondrial respiration (Seahorse XF MitoStress test, OCR); format: cell-based, human; details: FIGS. 12A-12D; 30 μM and 90 μM for 72 h
Protocol: Measurement of Mitochondrial Respiration Seahorse: Fb859 cells were grown in regular DMEM media until 85-90% confluency. The cells were harvested and seeded at a concentration of 25,000 cells/80 μl (n=8 replicates) in poly-D lysine coated XFe seahorse 96well plate in regular DMEM media and incubated overnight at 37° C. in a 5% CO2 incubator. Following day, the culture media was replaced in designated wells with the following for 72 h:180 μl of Specialty Media A (seahorse XFDMEM base media+10% fat stripped FBS+Glucose+sodium pyruvate+L-glutamine+0.5 mM carnitine). 180 μl of Specialty Media B (scahorse XFDMEM base media+10% stripped FBS+0.5 mM carnitine and no added glucose, sodium pyruvate or glutamine). 180 μl of Specialty media B containing experimental compounds. After 72 h incubation the Specialty media A & B was replaced in respective designated wells with 180 μL Seahorse XF DMEM base media containing glucose, sodium pyruvate. […] OCR was determined (Seahorse XF MitoStress test). Finally, cells were lysed, and protein content was determined. […]
Measurement of Mitochondrial Respiration: Control Fb826 and Patient Fb859 cells were grown in regular DMEM media without adding extra glutamine until 85-90% confluency. […] Oxygen consumption rate (OCR) was determined (Seahorse XF MitoStress test). Finally, cells were lysed, and protein content was determined. […]

[2] = test system: propionic acidemia (PA) fibroblast cell line Fb900; assay: Mitochondrial ROS production using MitoSOX Red; format: cell-based, human; details: FIG. 15C; 180 and 640 μM, 72 h
Excerpt: (§1) FIGS. 15A-15D are graphs showing the measurement of mitochondrial reactive oxygen species (ROS) production using MitoSOX Red as Superoxide indicator probe. FIG. 15A is a graph showing control fibroblast cell line FB826 treated with PMA010, PMA011, PMA019, and PMA020. FIG. 15B is a graph showing propionic acidemia (PA) patients' fibroblast cell linc Fb859 treated with PMA010, PMA011, PMA019, and PMA020. FIG. 15C is a graph showing propionic acidemia (PA) patients' fibroblast cells line Fb900 treated with PMA010, PMA011, PMA019, and PMA020. FIG. 15D is a graph comparing ROS production levels in response to treatment with PMA011 in Control fibroblast cell line (FB826), PA fibroblast cell line (Fb900), and glutaric acidemia II (GA II) patient fibroblast cell lines (Fb930, Fb961). Data are the average of readings from 3 replicate wells.
(§2) Measurement of mitochondrial ROS production using MitoSOX Red as superoxide indicator probe: control (Fb826), PA patient (Fb859, Fb900) and GA II patient (Fb930, Fb961) fibroblasts were grown in regular DMEM media containing glucose/pyruvate/L-glutamine until 85-90% confluency. The cells were harvested and seeded at a concentration of 25,000 cells/80 μl (n=3) in cell culture treated black wall 96 well microplate with clear bottom in regular DMEM media containing glucose/pyruvate/L-glutamine and incubated overnight at 37° C. in a 5% CO2 incubator. Following day, the culture media was replaced in designated wells with the following for 72 h: 150 μl regular DMEM (Glucose+10% FBS+sodium pyruvate+L-glutamine+0.5 mM carnitine). 150 μl of Regular DMEM containing experimental compounds (180 and 640 μM) PMA010 or PMA011 or PMA 019 and (640 μM) PMA020 in control and propionic acidemia patient fibroblasts. 150 μl of regular DMEM containing experimental compounds (600 and 1200 μM) PMA011 in Fb930 and (1200 μM) PMA011 in Fb961 GA II patient fibroblast. After 72 h incubation the wells were washed twice with 150 μL of Seahorse XFDMEM base media and in respective designated wells the following Assay buffer (150 μL of seahorse XFDMEM base media containing glucose, sodium pyruvate and Glutamine) was used along with 5 μM MitoSOX reagent and incubated at 37° C. non-CO2 incubator for 15 minutes protected from light. After 15 minutes incubation the cells were washed twice with 150 μL of seahorse XFDMEM base media and replaced with measurement buffer, which is same as the wash buffer. The fluorescence was monitored with excitation at 520 nm and emission at 580 nm. Finally, cells were lysed, and protein content was determined. Data is normalized to protein concentration and fluorescence is reported as MitoSOX Red (AFU)/mg protein.

[3] = test system: glutaric acidemia II (GA II) fibroblast cell line Fb930; assay: Mitochondrial ROS production using MitoSOX Red; format: cell-based, human; details: FIG. 15D; 600 and 1200 μM, 72 h; preliminary test
Excerpt: as §1, §2

[4] = test system: glutaric acidemia II (GA II) fibroblast cell line Fb961; assay: Mitochondrial ROS production using MitoSOX Red; format: cell-based, human; details: FIG. 15D; 1200 μM, 72 h; preliminary test
Excerpt: as §1, §2

PA patients = details: clinical study initiated in 2008; cited from earlier work

N[C@H](CO)C(=O)O [D-serine, reference compound]
lysine succinylation (green) signal [1]: Restoration of lysine succinylation (green) signal

O=C(O)C[C@H](O)C(=O)O [L-malate]
reduction of propionate level (rat liver mitochondrial): 46%
reduction of propionyl-CoA levels in the mitochondrial matrix (rat liver mitochondrial): 62%

N[C@H](COC(=O)CCCCC(=O)O)C(=O)N[C@@H](Cc1c[nH]cn1)C(=O)O [PMA007, 6-((R)-2-amino-3-(((S)-1-carboxy-2-(1H-imidazol-4-yl)ethyl)amino)-3-oxopropoxy)-6-oxohexanoic acid]
lysine succinylation (green) signal (HEK293 PCCA−/− cells): green color was restored
oxygen consumption parameters compared to individual components D-Serine and D-Histidine (PA patient cells, Fb859): improved
lysine succinylation (green) signal [1]: Restoration of lysine succinylation (green) signal

CC(C(=O)O)C(=O)N[C@H](C)C(=O)N[C@H](Cc1c[nH]cn1)C(=O)O (stereo partly drawn) [PMA011, 3-(((R)-1-(((R)-1-carboxy-2-(1H-imidazol-4-yl)ethyl)amino)-1-oxopropan-2-yl)amino)-2-methyl-3-oxopropanoic acid]
lysine succinylation (green staining) compared to untreated cells [1]: obvious increase in the green staining
ROS detected (MitoSOX Red) [2]: similarly effective
ROS detected (MitoSOX Red) compared to no treatment [3]: significant decrease in ROS
ROS detected (MitoSOX Red) compared to no treatment [4]: significant decrease in ROS

O=C(O)CCCCC(=O)O [adipic acid, reference compound]
lysine succinylation (green staining) compared to untreated cells [1]: obvious increase in the green staining

O=C(O)CC(O)(CC(=O)O)C(=O)O [citrate]
clinical benefit of supplementation (PA patients): can be beneficial in some cases

CC(C(=O)O)C(=O)O [methylmalonic acid]
lysine succinylation (green staining) compared to untreated cells [1]: obvious increase in the green staining

O=C(O)CCC(=O)O [succinic acid, reference compound]
lysine succinylation (green staining) compared to untreated cells [1]: obvious increase in the green staining
